Measured values: ChEMBL document CHEMBL4765284, “Optimization of 5-substituted thiazolyl ureas and 6-substituted imidazopyridines as potential HIV-1 latency reversing agents” (Eur J Med Chem, 2020)
Converted amounts (≈) assume the structure as drawn.

Assays:
[1] = test system: Human immunodeficiency virus 1; assay: Antiviral activity against HIV-1 infected in J-Lat 10.6 cells assessed as maximal activation of long terminal repeat driven gene expression at 1 uM incubated for 48 hrs by green fluorescent protein based cellular assay relative to control; type: functional
[2] = test system: Cytomegalovirus; assay: Antiviral activity against CMV infected in FlpIn-HEK293 cells assessed as click beetle green reporter driven gene expression incubated for 72 hrs by luciferase based cellular assay; type: functional, organism-based; conditions: HEK293, 72 h
[3] = test system: Human immunodeficiency virus 1; assay: Antiviral activity against HIV-1 infected in J-Lat 10.6 cells assessed as maximal activation of long terminal repeat driven gene expression incubated for 48 hrs by green fluorescent protein based cellular assay; type: functional, organism-based; conditions: Human immunodeficiency virus 1, J-Lat 10.6, 48 h
[4] = Cytotoxicity against human HepG2 cells assessed as growth incubation incubated for 48 hrs by cell titer glo assay; type: cell-based
[5] = Aqueous solubility of compound at pH 6.5 by nephelometry; type: physicochemical
[6] = Metabolic stability in mouse liver microsomes assessed as intrinsic clearance at 1 uM measured upto 60 mins by LC-MS anlaysis; type: ADME, Microsome; conditions: read-out: CLH
[7] = Metabolic stability in mouse liver microsomes assessed as half life at 1 uM measured upto 60 mins by LC-MS anlaysis; type: ADME, Microsome
[8] = test system: Human immunodeficiency virus 1; assay: Antiviral activity against HIV-1 infected in FlpIn-HEK293 cells assessed as activation of long terminal repeat driven gene expression incubated for 72 hrs by luciferase based cellular assay; type: functional, organism-based; conditions: Human immunodeficiency virus 1, HEK293, 72 h
[9] = Aqueous solubility of compound at pH 2 by nephelometry; type: physicochemical
[10] = test system: Human immunodeficiency virus 1; assay: Antiviral activity against HIV-1 infected in FlpIn-HEK293 cells assessed as maximal activation of long terminal repeat driven gene expression at 0.25 uM incubated for 48 hrs by luciferase based cellular assay relative to control; type: functional
[11] = test system: Human immunodeficiency virus 1; assay: Antiviral activity against HIV-1 infected in J-Lat 10.6 cells assessed as maximal activation of long terminal repeat driven gene expression at 2 uM incubated for 48 hrs by green fluorescent protein based cellular assay relative to control; type: functional
[12] = test system: Human immunodeficiency virus 1; assay: Antiviral activity against HIV-1 infected in FlpIn-HEK293 cells assessed as maximal activation of long terminal repeat driven gene expression at 0.31 uM incubated for 48 hrs by luciferase based cellular assay relative to control; type: functional
[13] = test system: Human immunodeficiency virus 1; assay: Antiviral activity against HIV-1 infected in FlpIn-HEK293 cells assessed as maximal activation of long terminal repeat driven gene expression at 0.09 uM incubated for 48 hrs by luciferase based cellular assay relative to control; type: functional
[14] = test system: Human immunodeficiency virus 1; assay: Antiviral activity against HIV-1 infected in J-Lat 10.6 cells assessed as maximal activation of long terminal repeat driven gene expression at 0.06 uM incubated for 48 hrs by green fluorescent protein based cellular assay relative to control; type: functional
[15] = test system: Human immunodeficiency virus 1; assay: Antiviral activity against HIV-1 infected in FlpIn-HEK293 cells assessed as maximal activation of long terminal repeat driven gene expression at 0.63 uM incubated for 48 hrs by luciferase based cellular assay relative to control; type: functional
[16] = Metabolic stability in human liver microsomes assessed as half life at 1 uM measured upto 60 mins by LC-MS anlaysis; type: ADME, Microsome
[17] = Metabolic stability in human liver microsomes assessed as intrinsic clearance at 1 uM measured upto 60 mins by LC-MS analysis; type: ADME, Microsome; conditions: read-out: CLH
[18] = test system: Human immunodeficiency virus 1; assay: Antiviral activity against HIV-1 infected in FlpIn-HEK293 cells assessed as maximal activation of long terminal repeat driven gene expression at 1.3 uM incubated for 48 hrs by luciferase based cellular assay relative to control; type: functional
[19] = test system: Human immunodeficiency virus 1; assay: Antiviral activity against HIV-1 infected in J-Lat 10.6 cells assessed as maximal activation of long terminal repeat driven gene expression at 20 uM incubated for 48 hrs by green fluorescent protein based cellular assay relative to control; type: functional
[20] = molecular target: T1, Cyclin-K (Homo sapiens) (UniProt O75909); assay: Inhibition of cyclin K (unknown origin) at 0.5 uM
T1 sequence (whole entry): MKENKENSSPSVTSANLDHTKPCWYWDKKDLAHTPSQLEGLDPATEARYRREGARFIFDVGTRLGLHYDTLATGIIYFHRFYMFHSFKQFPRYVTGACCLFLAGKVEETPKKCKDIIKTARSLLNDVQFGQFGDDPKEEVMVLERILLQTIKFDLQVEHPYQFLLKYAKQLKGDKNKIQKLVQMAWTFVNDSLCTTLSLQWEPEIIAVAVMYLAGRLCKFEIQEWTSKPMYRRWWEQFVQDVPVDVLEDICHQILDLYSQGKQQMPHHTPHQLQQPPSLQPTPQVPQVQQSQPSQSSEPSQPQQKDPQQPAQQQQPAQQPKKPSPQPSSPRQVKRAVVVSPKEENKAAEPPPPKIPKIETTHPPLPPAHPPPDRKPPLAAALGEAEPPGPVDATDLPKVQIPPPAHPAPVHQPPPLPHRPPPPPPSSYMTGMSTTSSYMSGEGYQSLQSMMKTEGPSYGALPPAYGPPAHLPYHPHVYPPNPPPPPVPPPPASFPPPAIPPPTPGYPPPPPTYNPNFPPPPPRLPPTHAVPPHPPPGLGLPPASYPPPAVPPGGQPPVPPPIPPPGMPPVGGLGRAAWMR

[21] = molecular target: Cyclin-dependent kinase 9 (Homo sapiens) (UniProt P50750); assay: Inhibition of CDK9 (unknown origin) at 0.5 uM
Cyclin-dependent kinase 9 (Homo sapiens), sequence (P50750 whole entry): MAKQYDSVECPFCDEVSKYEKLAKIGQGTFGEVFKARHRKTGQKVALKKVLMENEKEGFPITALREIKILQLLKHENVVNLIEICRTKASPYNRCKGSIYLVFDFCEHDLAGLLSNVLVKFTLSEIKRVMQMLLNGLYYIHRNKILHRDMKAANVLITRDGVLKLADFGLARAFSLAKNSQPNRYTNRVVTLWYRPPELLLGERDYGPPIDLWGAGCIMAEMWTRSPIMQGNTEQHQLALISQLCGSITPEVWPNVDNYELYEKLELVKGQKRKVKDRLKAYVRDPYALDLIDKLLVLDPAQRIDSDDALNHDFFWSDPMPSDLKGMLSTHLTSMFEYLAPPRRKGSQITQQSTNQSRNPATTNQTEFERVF

[22] = molecular target: Cyclin-T1 (Homo sapiens) (UniProt O60563); assay: Inhibition of cyclin T1 (unknown origin) at 0.5 uM
Cyclin-T1 (Homo sapiens), sequence (O60563 whole entry): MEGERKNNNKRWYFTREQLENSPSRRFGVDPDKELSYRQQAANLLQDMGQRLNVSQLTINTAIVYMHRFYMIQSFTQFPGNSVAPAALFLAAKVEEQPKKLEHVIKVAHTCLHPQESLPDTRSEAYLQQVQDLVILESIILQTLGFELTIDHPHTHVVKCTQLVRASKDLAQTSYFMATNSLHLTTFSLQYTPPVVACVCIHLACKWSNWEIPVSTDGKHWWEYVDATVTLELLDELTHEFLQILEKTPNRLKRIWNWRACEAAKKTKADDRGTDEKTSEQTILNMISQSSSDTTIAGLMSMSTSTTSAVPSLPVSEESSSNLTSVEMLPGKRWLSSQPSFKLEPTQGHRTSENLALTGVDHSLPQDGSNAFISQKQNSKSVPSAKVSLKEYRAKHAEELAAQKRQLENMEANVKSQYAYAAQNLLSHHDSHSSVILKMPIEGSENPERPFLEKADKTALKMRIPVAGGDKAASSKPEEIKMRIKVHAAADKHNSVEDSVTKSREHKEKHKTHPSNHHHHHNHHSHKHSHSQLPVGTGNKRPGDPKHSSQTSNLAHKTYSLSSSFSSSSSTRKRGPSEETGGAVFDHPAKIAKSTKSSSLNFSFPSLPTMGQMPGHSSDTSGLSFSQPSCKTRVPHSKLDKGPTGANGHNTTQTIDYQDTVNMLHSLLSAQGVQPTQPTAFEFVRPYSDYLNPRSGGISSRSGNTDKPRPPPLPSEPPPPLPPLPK

[23] = molecular target: Cyclin-T2 (Homo sapiens) (UniProt O60583); assay: Inhibition of cyclin T2 (unknown origin) at 0.5 uM
Cyclin-T2 (Homo sapiens), sequence (O60583 whole entry): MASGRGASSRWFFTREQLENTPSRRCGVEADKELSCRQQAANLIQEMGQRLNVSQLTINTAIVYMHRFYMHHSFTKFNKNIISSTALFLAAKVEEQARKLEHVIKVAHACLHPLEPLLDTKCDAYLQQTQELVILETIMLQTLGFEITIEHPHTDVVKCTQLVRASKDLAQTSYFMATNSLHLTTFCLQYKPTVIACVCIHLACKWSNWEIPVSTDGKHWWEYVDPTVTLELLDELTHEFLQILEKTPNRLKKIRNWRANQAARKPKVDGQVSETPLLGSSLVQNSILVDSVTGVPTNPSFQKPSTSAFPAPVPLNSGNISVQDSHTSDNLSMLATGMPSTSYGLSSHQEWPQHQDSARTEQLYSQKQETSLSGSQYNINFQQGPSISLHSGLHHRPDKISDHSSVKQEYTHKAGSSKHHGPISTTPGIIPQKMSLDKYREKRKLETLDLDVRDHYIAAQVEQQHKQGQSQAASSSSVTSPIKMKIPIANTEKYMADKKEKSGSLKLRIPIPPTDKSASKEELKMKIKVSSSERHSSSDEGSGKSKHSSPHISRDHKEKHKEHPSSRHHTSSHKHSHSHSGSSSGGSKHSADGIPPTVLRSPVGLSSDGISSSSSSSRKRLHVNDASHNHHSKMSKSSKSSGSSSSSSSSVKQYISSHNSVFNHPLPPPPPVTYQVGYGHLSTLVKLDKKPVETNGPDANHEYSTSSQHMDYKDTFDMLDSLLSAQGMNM

[24] = test system: Human immunodeficiency virus 1; assay: Antiviral activity against HIV-1 infected in J-Lat 10.6 cells assessed as maximal activation of long terminal repeat driven gene expression at 0.25 uM incubated for 48 hrs by green fluorescent protein based cellular assay relative to control; type: functional
[25] = test system: Human immunodeficiency virus 1; assay: Antiviral activity against HIV-1 infected in FlpIn-HEK293 cells assessed as maximal activation of long terminal repeat driven gene expression at 0.13 uM incubated for 48 hrs by luciferase based cellular assay relative to control; type: functional
[26] = test system: Human immunodeficiency virus 1; assay: Antiviral activity against HIV-1 infected in FlpIn-HEK293 cells assessed as maximal activation of long terminal repeat driven gene expression at 5 uM incubated for 48 hrs by luciferase based cellular assay relative to control; type: functional
[27] = test system: Human immunodeficiency virus 1; assay: Antiviral activity against HIV-1 infected in J-Lat 10.6 cells assessed as maximal activation of long terminal repeat driven gene expression at 0.13 uM incubated for 48 hrs by green fluorescent protein based cellular assay relative to control; type: functional
[28] = test system: Human immunodeficiency virus 1; assay: Antiviral activity against HIV-1 infected in FlpIn-HEK293 cells assessed as maximal activation of long terminal repeat driven gene expression at 0.16 uM incubated for 48 hrs by luciferase based cellular assay relative to control; type: functional

Row | Structure (SMILES) | EC50 [2] | EC50 [3] | CC50 at 48 h [4] | solubility kinetic [5] | microsomal CLint at 1 µM [6] | half-life at 1 µM [7] | EC50 [8] | solubility kinetic [9] | half-life at 1 µM [16] | microsomal CLint at 1 µM [17] | further results
1 | Cc1ccc(NC2CN(C(=O)Nc3ncc(Cl)s3)C2)cc1Cl | 1700 nM | 1500 nM | 330 nM | 1.6 µM (≈ 0.572 µg/mL) | 49 µL/min/mg | 36 min | 230 nM | 1.6 µM (≈ 0.572 µg/mL) | – | – | %max [1]: 31%; %max [10]: 63%
2 | Cc1ccc(N2CCN(C(=O)Nc3ncc(Cl)s3)CC2=O)cc1Cl | 13000 nM | 2700 nM | 42000 nM | 1.6 µM (≈ 0.616 µg/mL) | 29 µL/min/mg | 60 min | 640 nM | 1.6 µM (≈ 0.616 µg/mL) | – | – | %max [11]: 38%; %max [12]: 47%
3 | Clc1cnc2[nH]c(N3CCN(c4cnc(Cl)c(Cl)c4)CC3)nc2c1 | 27000 nM | 24000 nM | 40 nM | 1.6 µM (≈ 0.614 µg/mL) | 132 µL/min/mg | 13 min | 80 nM | 25 µM (≈ 9.59 µg/mL) | – | – | %max [13]: 57%; %max [14]: 28%
4 | Cc1cc(NC2CCN(C(=O)Nc3ncc(Cl)s3)C2)ccc1Cl (configuration not stated) | 1800 nM | 3000 nM | 680 nM | 1.6 µM (≈ 0.594 µg/mL) | 151 µL/min/mg | 11 min | 790 nM | 6.3 µM (≈ 2.34 µg/mL) | – | – | %max [15]: 39%; %max [11]: 20%
5 | Cc1cnc2[nH]c(N3CCN(c4ccc(C)c(Cl)c4)CC3)nc2c1 | 2800 nM | – | – | < 1.6 µM | 224 µL/min/mg | 8 min | 3200 nM | 50 µM (≈ 17.1 µg/mL) | 15 min | 115 µL/min/mg | –
6 | Cc1cc(OCCCC(=O)Nc2ncc(Cl)s2)ccc1Cl | – | 29000 nM | – | – | – | – | – | – | – | – | %max [18]: 39%; %max [19]: 15%
7 | Cc1ccc(N2CCN(C(=O)Nc3ncc(Cl)s3)CC2)cc1Cl | 670 nM | 1700 nM | 250 nM | < 1.6 µM | 53 µL/min/mg | 33 min | 240 nM | < 1.6 µM | – | – | %max [1]: 23%; inhibition [20]: 40%; inhibition [21]: 40%; inhibition [22]: 40%; inhibition [23]: 40%; %max [10]: 53%
8 | N#Cc1cccc(N2CCN(C(=O)Nc3ncc(Cl)s3)CC2)c1 | 500 nM | 480 nM | 50 nM | < 1.6 µM | 38 µL/min/mg | 46 min | 610 nM | < 1.6 µM | – | – | %max [24]: 28%; %max [12]: 22%
9 | Cc1ccc(OCCCc2nc3cc(Cl)cnc3[nH]2)cc1Cl | 12000 nM | – | – | < 1.6 µM | > 866 µL/min/mg | < 2 min | 9400 nM | 1.6 µM (≈ 0.538 µg/mL) | 5 min | 329 µL/min/mg | –
10 | Clc1cnc2[nH]c(CCCOc3cnc(Cl)c(Cl)c3)nc2c1 | 2400 nM | > 4000 nM | 1900 nM | 1.6 µM (≈ 0.572 µg/mL) | 122 µL/min/mg | 14 min | 6400 nM | 12.5 µM (≈ 4.47 µg/mL) | – | – | %max [11]: 11%; %max [25]: 26%
11 | N#Cc1cnc(NC(=O)N2CCN(c3ccc(Cl)c(Cl)c3)CC2)s1 | 4400 nM | 1600 nM | 410 nM | < 1.6 µM | 15 µL/min/mg | 117 min | 350 nM | < 1.6 µM | 151 min | 11 µL/min/mg | %max [1]: 30%; %max [26]: 87%
12 | Cc1cnc(NC(=O)CCCOc2ccc(Cl)c(C)c2)s1 | – | – | – | 1.1 µM (≈ 0.357 µg/mL) | 815 µL/min/mg | 2 min | – | < 1.1 µM | 10 min | 175 µL/min/mg | –
13 | O=C(Nc1ncc(Cl)s1)N1CCN(c2cnc(Cl)c(Cl)c2)CC1 | 70 nM | 290 nM | 40 nM | < 1.6 µM | 32 µL/min/mg | 55 min | 80 nM | < 1.6 µM | 70 min | 25 µL/min/mg | inhibition [20]: 60%; %max [25]: 65%; inhibition [21]: 60%; %max [27]: 26%; inhibition [22]: 60%; inhibition [23]: 60%
14 | N#Cc1cnc(NC(=O)N2CCN(c3cnc(Cl)c(Cl)c3)CC2)s1 | 150 nM | 1100 nM | 120 nM | < 1.6 µM | 22 µL/min/mg | 80 min | 390 nM | < 1.6 µM | – | – | %max [28]: 25%; %max [24]: 28%
